Experimental data taken from US9943473B2, “Zinc lysine halide complex” (Colgate-Palmolive Company, priority 2012, dated 2018).

Legend:
[1] = tested on: S. aureus; test: Zone of inhibition test on TSA plates; assay type: cell-based
Procedure: (§1) A zone of inhibition test is conducted on several materials: zinc oxide and amino acid hydrohalide alone and a mixture formed from zinc oxide and amino acid hydrohalide. The method involves making a lawn of freshly prepared bacterial culture on TSA (trypticase soy agar) plates. Sterile filter paper discs are seeded with 20 μl of test sample (supernatant or mixture). Sample-coated filter paper discs are air dried and applied onto the bacterial lawn on TSA plates. Plates are incubated for 20 hours at 37° C.

[2] = tested on: C. minutissimum; test: Zone of inhibition test on TSA plates; assay type: cell-based
Procedure: as §1

[3] = tested on: S. epider.; test: Zone of inhibition test on TSA plates; assay type: cell-based
Procedure: as §1

[4] = tested on: C. xerosis; test: Zone of inhibition test on TSA plates; assay type: cell-based
Procedure: as §1

[5] = target: Bovine Serum Albumin (BSA) (Bos taurus, UniProt P02769); test: Flocculation of ZLC in the presence of protein (turbidity, pH); details: ZLC about 15 mg/ml, 5 hours at 37° C.
Chain of Bovine Serum Albumin (BSA) (P02769 25-607): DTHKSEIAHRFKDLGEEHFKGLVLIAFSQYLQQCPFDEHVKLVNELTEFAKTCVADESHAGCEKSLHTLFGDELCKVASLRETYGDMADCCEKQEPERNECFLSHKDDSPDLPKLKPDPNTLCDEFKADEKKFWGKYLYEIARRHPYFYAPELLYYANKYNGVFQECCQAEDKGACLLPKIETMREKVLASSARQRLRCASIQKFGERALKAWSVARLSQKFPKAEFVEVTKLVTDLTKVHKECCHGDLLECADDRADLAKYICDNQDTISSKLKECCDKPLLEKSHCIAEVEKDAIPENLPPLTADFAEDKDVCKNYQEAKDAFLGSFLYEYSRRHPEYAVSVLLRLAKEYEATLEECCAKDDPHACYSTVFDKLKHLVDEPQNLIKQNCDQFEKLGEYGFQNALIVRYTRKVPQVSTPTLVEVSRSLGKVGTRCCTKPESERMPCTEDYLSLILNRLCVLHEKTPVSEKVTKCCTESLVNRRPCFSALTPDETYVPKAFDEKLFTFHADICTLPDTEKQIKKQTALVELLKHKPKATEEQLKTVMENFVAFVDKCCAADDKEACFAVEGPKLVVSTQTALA
Procedure: Turbidity and pH of solutions are measured 5 hours after the mixtures were placed in a 37° C. oven, and the results are shown in Table 6.

[6] = Hydrolysis reaction: pH and turbidity of diluted ZLC solutions before and after aging; assay type: physicochemical; details: for pH after aging / turbidity after aging: aged at 37° C. over 5 hours
Procedure: A 185 mg/ml solution of ZLC is prepared and diluted several-fold and aged in a 37° C. oven over 5 hours for turbidity studies. […] Turbidity of the solutions is measured using a nephelometer, results being given in nephelometric turbidity units (NTU).
The precipitates formed in the 8×, 16× and 32× diluted solutions are collected by centrifugation and identified as crystalline ZnO by PXRD. From the supernatant, a single crystal is grown and shown by X-ray diffraction to be Lysine Monohydrochloride Dihydrate (Lysine.HCl.2H2O).

[7] = general description; cited from earlier work
[8] = Table 3, sample form not stated
[9] = sample 1: DI water, 0% BSA, pH 6.4

N=C(N)NCCC[C@H](N)C(=O)O [Arginine 4%, arginine]
Zone of Inhibition [1, 8]: 0 mm
Zone of Inhibition [2, 8]: 0 mm

NCCCC[C@H](N)C(=O)O [Lysine 4%, lysine]
Zone of Inhibition [1, 8]: 0 mm
Zone of Inhibition [2, 8]: 0 mm

Cl.NCCCC[C@H](N)C(=O)O [Lysine-HCl 23.2%, lysine hydrochloride]
Zone of Inhibition ([3]; Dry Sample, As is): 0 mm
Zone of Inhibition ([3]; Wet Sample, As is): 0 mm
Zone of Inhibition ([1]; Dry Sample, As is): 0 mm
Zone of Inhibition [1, 8]: 0 mm
Zone of Inhibition ([1]; Wet Sample, As is): 0 mm
Zone of Inhibition [2, 8]: 0 mm
Zone of Inhibition ([4]; Dry Sample, As is): 0 mm
Zone of Inhibition ([4]; Wet Sample, As is): 0 mm

[Cl-].[Cl-].[OH-].[OH-].[OH-].[OH-].[OH-].[OH-].[OH-].[OH-].[Zn+2].[Zn+2].[Zn+2].[Zn+2].[Zn+2] [TBZC (4%), zinc chloride hydroxide monohydrate]
Zone of Inhibition ([2]; Table 3, Mixture): 7 mm
Zone of Inhibition ([2]; Table 3, Supernat): 7 mm

NCCCCC(N)C(=O)O.NCCCCC(N)C(=O)O.O.O.[Cl-].[Cl-].[Zn+2] (stereo not drawn) [ZLC, [Zn(Lysine)2Cl]^+Cl^−.2H2O]
Turbidity [5, 9]: 357 NTU
pH [5, 9]: 8
Turbidity ([5]; sample 2: 1% BSA, pH 7.2): >1000 NTU
pH ([5]; sample 2: 1% BSA, pH 7.2): 8.2
Turbidity ([5]; sample 3: 1% BSA, pH adjusted to 5.1): >1000 NTU
initial turbidity ([6]; 5.78 mg/ml): 40.1 NTU
pH after aging ([6]; 5.78 mg/ml): 8
turbidity after aging ([6]; 5.78 mg/ml): >1000 NTU
initial turbidity ([6]; 11.56 mg/ml): 14.8 NTU
pH after aging ([6]; 11.56 mg/ml): 7.8
turbidity after aging ([6]; 11.56 mg/ml): >1000 NTU
initial turbidity ([6]; 23.125 mg/ml): 0.7 NTU
pH after aging ([6]; 23.125 mg/ml): 7.7
turbidity after aging ([6]; 23.125 mg/ml): 247.4 NTU
initial turbidity ([6]; 46.25 mg/ml): 1.5 NTU
pH after aging ([6]; 46.25 mg/ml): 7.4
turbidity after aging ([6]; 46.25 mg/ml): 2.8 NTU
initial turbidity ([6]; 92.5 mg/ml): 2.8 NTU
pH after aging ([6]; 92.5 mg/ml): 7
turbidity after aging ([6]; 92.5 mg/ml): 2.6 NTU
initial turbidity ([6]; 185 mg/ml): 4.7 NTU
pH after aging ([6]; 185 mg/ml): 6.8
turbidity after aging ([6]; 185 mg/ml): 4.1 NTU
stability of the complex upon dilution ([6]; 8×, 16× and 32× diluted solutions, precipitate identified as crystalline ZnO by PXRD): disassociates upon dilution, with consequent precipitation of zinc oxide

[O]=[Zn] [ZnO(4%), zinc oxide]
solubility in water [7]: insoluble in water
Zone of Inhibition ([3]; Dry Sample, Mixture): 10 mm
Zone of Inhibition ([3]; Dry Sample, Supernatant): 0 mm
Zone of Inhibition ([3]; Wet Sample, Mixture): 12 mm
Zone of Inhibition ([3]; Wet Sample, Supernatant): 0 mm
Zone of Inhibition ([1]; Dry Sample, Mixture): 7 mm
Zone of Inhibition ([1]; Dry Sample, Supernatant): 0 mm
Zone of Inhibition ([1]; Wet Sample, Mixture): 7 mm
Zone of Inhibition ([1]; Wet Sample, Supernatant): 0 mm
Zone of Inhibition ([4]; Dry Sample, Mixture): 0 mm
Zone of Inhibition ([4]; Dry Sample, Supernatant): 0 mm
Zone of Inhibition ([4]; Wet Sample, Mixture): 0 mm
Zone of Inhibition ([4]; Wet Sample, Supernatant): 0 mm
